Assay results: US20250032485A1, “APPLICATION OF IMIDAZO [1,2-A] PYRAZINE COMPOUNDS OR THEIR PHARMACEUTICALLY ACCEPTABLE SALTS IN THE PREPARATION OF ANTI-CORONAVIRUS DRUGS” (GUANGZHOU MEDICAL UNIVERSITY, priority 2023, published 2025)
Where two headings read alike, the source gives them in different places.

How the values were obtained:
[1] = molecular target: T1, PLpro of SARS-CoV-2 (Severe acute respiratory syndrome coronavirus 2, UniProt P0DTD1); test: IC50 determination of inhibition of PLpro activity (RLRGG-AMC substrate); format: biochemical; details: 13 concentrations 100 μM to 0.0244 μM, GraphPad Prism
[2] = molecular target: T1, PLpro of SARS-CoV-2; test: Enzyme activity test in vitro: inhibition of PLpro at fixed concentration 50 μM (RLRGG-AMC substrate); format: biochemical; details: read-out: Inhibition rate at 50 μM (%)
[3] = compound 50 μM, 10 min preincubation at 37° C., Table 1

| Structure (SMILES) | IC50 [1] | inhibition at 50 µM [2, 3] | inhibition at 50 µM [2] |
| --- | --- | --- | --- |
| Cc1ccc(-c2nc3cnccn3c2Nc2ccc(C(=O)N3CCOCC3)cc2)cc1 [P22415, [4-[[2-(4-methyl-phenyl)imidazo[1,2-a]pyrazin-3-yl]amino]phenyl]-morpholin-4-ylmethanone] | 49.7 µM | 63.3% |  |
| COc1ccc(-c2nc3cnccn3c2Nc2ccc(C(=O)NC3CCCCC3)cc2)cc1 [P22414, N-cyclohexyl-4-[[2-(4-methoxyphenyl)imidazo[1,2-a]pyrazin-3-yl]amino]benzamide] | 45.9 µM | 51.1% |  |
| CSc1ccc(-c2nc3cnccn3c2Nc2cccc(C(=O)NCc3ccco3)c2)cc1 [P22479] | 35.4 µM | 58.8% |  |
| COc1ccc(-c2nc3cnccn3c2Nc2ccc(C(N)=O)cc2)cc1 [P19442, 4-[[2-(4-methoxyphenyl)imidazo[1,2-a]pyrazin-3-yl]amino] benzamide] | 43.2 µM | 61.1% |  |
| CNC(=O)c1cccc(Nc2c(-c3ccc(N(C)C)cc3)nc3cnccn23)c1 [P19443, 3-[[2-[4-(dimethyl-amino)phenyl]imidazo [1,2-a]pyrazin-3-yl]amino]-N-methyl-benzamide] | 31.1 µM | 53% |  |
| CSc1ccc(-c2nc3cnccn3c2Nc2ccc(C(N)=O)cc2)cc1 [P19462, 4-[[2-(4-methyl-sulfanylphenyl)imidazo [1,2-a]pyrazin-3-yl]amino]benzamide] | 26 µM | 65% |  |
| COc1cc(-c2nc3cnccn3c2Nc2ccc(C(=O)O)cc2)ccc1O [P19455, 4-[[2-(4-hydroxy-3-methoxyphenyl)imidazo[1,2-a]pyrazin-3-yl]amino]benzoic acid] | 26.6 µM | 53.1% |  |
| Cc1ccc(-c2nc3cnccn3c2Nc2ccc(C(=O)NCCN3CCOCC3)cc2)cc1 [P22423, 4-[[2-(4-methylphenyl)imidazo[1,2-a]pyrazin-3-yl]amino]-N-(2-morpholin-4-ylethyl)benzamide] | 33.5 µM | 54.5% |  |
| COC(=O)c1cccc(Nc2c(-c3ccc(N(C)C)cc3)nc3cnccn23)c1 [P19446, methyl 3-[[2-[4-(dimethyl-amino)phenyl]imidazo [1,2-a]pyrazin-3-yl]amino]benzoate] | 30.3 µM | 65.8% |  |
| COC(=O)c1cccc(Nc2c(-c3cccc(Cl)c3)nc3cnccn23)c1 [P19456, methyl 3-[[2-(3-chlorophenyl)imidazo[1,2-a]pyrazin-3-yl]amino] benzoate] | 60.9 µM | 47.8% |  |
| COc1ccc(-c2nc3cnccn3c2Nc2ccc(C(N)=O)cc2)cc1OC [P19454, 4-[[2-(3,4-dimethoxy-phenyl)imidazo [1,2-a]pyrazin-3-yl]amino]benzamide] | 36.8 µM | 53.8% |  |
| Cc1ccc(-c2nc3cnccn3c2Nc2ccc(C(N)=O)cc2)cc1 [P19452, 4-[[2-(4-methyl-phenyl)imidazo[1,2-a]pyrazin-3-yl]amino] benzamide] | 28.4 µM | 53.1% |  |
| COc1ccc(Nc2c(-c3ccc(OC)c(OC)c3)nc3cnccn23)cc1OC [P19453, N,2-bis(3,4-dimethoxy-phenyl)imidazo [1,2-a]pyrazin-3-amine] | 6.45 µM | 65.5% |  |
| O=C(NCC1CCCO1)c1cccc(Nc2c(-c3ccccc3)nc3cnccn23)c1 (stereo not shown) [P22477, N-(oxolan-2-ylmethyl)-3-[(2-phenylimidazo [1,2-a]pyrazin-3-yl)amino]benzamide] |  |  | 41% |
| COC(=O)c1cccc(Nc2c(-c3ccc(F)cc3)nc3cnccn23)c1 [P37357, methyl 3-[[2-(4-fluorophenyl)imidazo[1,2-a]pyrazin-3-yl]amino] benzoate] |  |  | 4.32% |
| COc1ccc(-c2nc3cnccn3c2Nc2ccc(C(=O)NCC3CCCO3)cc2)cc1 (stereo not shown) [P22473, 4-[[2-(4-methoxy-phenyl)imidazo[1,2-a]pyrazin-3-yl]amino]-N-(oxolan-2-ylmethyl) benzamide] |  |  | 36.8% |
| COC(=O)c1cccc(Nc2c(-c3ccc(O)cc3)nc3cnccn23)c1 [P37327, methyl 3-[[2-(4-hydroxy-phenyl)imidazo[1,2-a]pyrazin-3-yl]amino] benzoate] |  |  | 48.5% |
| CSc1ccc(-c2nc3cnccn3c2Nc2ccc(C(=O)N3CCOCC3)cc2)cc1 [P22425, [4-[[2-(4-methyl-sulfanylphenyl)imidazo [1,2-a]pyrazin-3-yl]amino]phenyl]-morpholin-4-ylmethanone] |  |  | 40.7% |
| O=C(c1cccc(Nc2c(-c3ccccc3)nc3cnccn23)c1)N1CCCCC1 [P22458, [3-[(2-phenylimidazo [1,2-a]pyrazin-3-yl)amino]phenyl]-piperidin-1-ylmethanone] |  |  | 35.5% |
| CCOC(=O)c1ccc(Nc2c(-c3ccccc3O)nc3cnccn23)cc1 [P22512, ethyl 4-[[2-(2-hydroxy-phenyl)imidazo[1,2-a]pyrazin-3-yl]amino] benzoate] |  |  | 26.9% |
| CCOC(=O)c1ccc(Nc2c(-c3ccc(O)cc3)nc3cnccn23)cc1 [P19504, ethyl 4-[[2-(4-hydroxy-phenyl)imidazo[1,2-a]pyrazin-3-yl]amino] benzoate] |  |  | 32.6% |

| Structure (SMILES) | IC50 [1] | inhibition at 50 µM [2, 3] | inhibition at 50 µM [2] |
| --- | --- | --- | --- |
| CNC(=O)c1cccc(Nc2c(-c3ccc(Cl)cc3)nc3cnccn23)c1 [P19512, 3-[[2-(4-chlorophenyl)imidazo[1,2-a]pyrazin-3-yl]amino]-N-methylbenzamide] |  |  | 41.6% |
| CCOC(=O)c1ccc(Nc2c(-c3ccc(C)cc3)nc3cnccn23)cc1 [P22482, ethyl 4-[[2-(4-methylphenyl)imidazo[1,2-a]pyrazin-3-yl]amino] benzoate] |  |  | 22.2% |
| COC(=O)c1cccc(Nc2c(-c3ccccc3)nc3cnccn23)c1 [P19476, methyl 3-[(2-phenylimidazo [1,2-a]pyrazin-3-yl)amino]benzoate] |  |  | 34% |
| COc1ccc(-c2nc3cnccn3c2Nc2ccccc2C)cc1OC [P19463, 2-(3,4-dimethoxy-phenyl)-N-(2-methylphenyl)imidazo[1,2-a]pyrazin-3-amine] |  |  | 40.7% |
| O=C(NC1CCCCC1)c1ccc(Nc2c(-c3ccccc3)nc3cnccn23)cc1 [P22404, N-cyclohexyl-4-[(2-phenylimidazo[1,2-a]pyrazin-3-yl)amino] benzamide] |  |  | 26.1% |
| CSc1ccc(-c2nc3cnccn3c2Nc2cccc(C(=O)O)c2)cc1 [P37298, 3-[[2-(4-methyl-sulfanylphenyl)imidazo [1,2-a]pyrazin-3-yl]amino]benzoic acid] |  |  | 33.6% |
| CCOC(=O)c1ccc(Nc2c(-c3ccc(Cl)cc3)nc3cnccn23)cc1 [P22492, ethyl 4-[[2-(4-chlorophenyl)imidazo[1,2-a]pyrazin-3-yl]amino] benzoate] |  |  | 29.5% |
| CN(C)CCNC(=O)c1ccc(Nc2c(-c3ccccc3)nc3cnccn23)cc1 [P22433, N-[2-(dimethylamino)ethyl]-4-[(2-phenyl-imidazo[1,2-a]pyrazin-3-yl)amino] benzamide] |  |  | 30.5% |
| Cc1ccc(-c2nc3cnccn3c2Nc2ccc(C(=O)NC3CCCCC3)cc2)cc1 [P22434, N-cyclohexyl-4-[[2-(4-methylphenyl)imidazo[1,2-a]pyrazin-3-yl]amino]benzamide] |  |  | 41.1% |
| O=C(O)c1ccc(Nc2c(-c3cccc(Cl)c3)nc3cnccn23)cc1 [P22493, 4-[[2-(3-chlorophenyl)imidazo[1,2-a]pyrazin-3-yl]amino] benzoic acid] |  |  | 13.2% |
| O=C(O)c1cccc(Nc2c(-c3cccc(Br)c3)nc3cnccn23)c1 [P19467, 3-[[2-(3-bromophenyl)imidazo[1,2-a]pyrazin-3-yl]amino] benzoic acid] |  |  | 27.3% |
| CCc1cccc(C)c1Nc1c(-c2ccc(OC)c(OC)c2)nc2cnccn12 [P19513, 2-(3,4-dimethoxy-phenyl)-N-(2-ethyl-6-methylphenyl)imidazo [1,2-a]pyrazin-3-amine] |  |  | 38.8% |
| CN(C)c1ccc(-c2nc3cnccn3c2Nc2cccc(C(N)=O)c2)cc1 [P22406, 3-[[2-[4-(dimethyl-amino)phenyl]imidazo [1,2-a]pyrazin-3-yl]amino]benzamide] |  |  | 37.2% |
| COc1ccc(-c2nc3cnccn3c2Nc2ccc(C(C)C)cc2)cc1OC [P19473, 2-(3,4-dimethoxy-phenyl)-N-(4-propan-2-ylphenyl)imidazo [1,2-a]pyrazin-3-amine] |  |  | 37.5% |
| CSc1ccc(-c2nc3cnccn3c2Nc2ccc(C(=O)NCc3ccco3)cc2)cc1 [P22465, N-(furan-2-ylmethyl)-4-[[2-(4-methyl-sulfanylphenyl)imidazo [1,2-a]pyrazin-3-yl]amino]benzamide] |  |  | 29.6% |
| COc1ccc(-c2nc3cnccn3c2Nc2cccc(C(=O)NCCN3CCOCC3)c2)cc1 [P22437, 3-[[2-(4-methoxy-phenyl)imidazo[1,2-a]pyrazin-3-yl]amino]-N-(2-morpholin-4-ylethyl)benzamide] |  |  | 24.2% |
| O=C(O)c1ccc(Nc2c(-c3cccc(Br)c3)nc3cnccn23)cc1 [P18234, 4-[[2-(3-bromophenyl)imidazo[1,2-a]pyrazin-3-yl]amino] benzoic acid] |  |  | 20.5% |
| COC(=O)c1cccc(Nc2c(-c3ccc(SC)cc3)nc3cnccn23)c1 [P19495, methyl 3-[[2-(4-methyl-sulfanylphenyl)imidazo [1,2-a]pyrazin-3-yl]amino]benzoate] |  |  | 41.7% |
| Cc1ccc(-c2nc3cnccn3c2Nc2ccc(C(=O)O)cc2)cc1 [P19465, 4-[[2-(4-methyl-phenyl)imidazo[1,2-a]pyrazin-3-yl]amino] benzoic acid] |  |  | 15.9% |
| CCOC(=O)c1ccc(Nc2c(-c3ccccc3)nc3cnccn23)cc1 [P22483, ethyl 4-[(2-phenylimidazo [1,2-a]pyrazin-3-yl)amino]benzoate] |  |  | 29.4% |
| CCOC(=O)c1ccc(Nc2c(-c3ccc(OC)cc3)nc3cnccn23)cc1 [P22531, ethyl 4-[[2-(4-methoxy-phenyl)imidazo[1,2-a]pyrazin-3-yl]amino] benzoate] |  |  | 31.9% |
